Experimental data taken from patent US9585840B1, “Redox active cerium oxide nanoparticles and associated methods” (University of Central Florida Research Foundation, Inc., priority 2009, dated 2017).
Blank lines part the entries; values can stand above or below the molecule they belong to.

Key:
[1] = mouse, in vivo, iv, 0.5 mg/kg
Protocol: Eight-week-old, CD-1 mice were divided into two groups. Controls were given weekly doses of 100 μl sterile PBS only by intravenous (IV) administration. The nanoceria group received five doses (one dose a week) of 0.5 mg/kg of nanoceria suspended in 100 μl of sterile saline (IV). Both groups were sacrified on the sixth week. Skin tissue from the back of each animal was excised and hair removed. The tissue was patted dry, weighed and placed in 70% nitric acid overnight to start the digestion process. Samples were then microwave digested. The temperature was ramped to 200° C. over 20 min and held there for another 20 min. Samples were then boiled down to less than 1 ml each and reconstituted in water to an exact volume of 10 ml. Cerium levels were assessed using inductively coupled plasma mass spectroscopy (ICP-MS).

αSMA = assay: TGFβ1-mediated αSMA protein expression in human dermal fibroblasts, western blot; format: cell-based; conditions: HDF; for TGFβ1-triggered upregulation of αSMA protein levels: NAC 5.0 mM 4 h or Na2SeO3 0.5 μM 24 h pretreatment, rTGFβ1 5 ng/ml, 48 h after growth factor
Protocol: Human dermal fibroblasts (HDF) were established by outgrowth from foreskin biopsies of healthy human donors with an age of 3-6 years. Cells were used in passages 2-12, corresponding to cumulative population doubling levels of 3-27 [15]. Dermal fibroblasts and the squamous carcinoma cell line SCL-1, originally derived from the face of a person (generously provided by Prof. Dr Norbert Fusenig, DKFZ Heidelberg, Germany), were cultured as described. Myofibroblasts (MF) were generated by treatment of HDFs with different concentrations of recombinant TGFβ1 (5 ng/ml) for 48 h in HDF conditioned medium (CMHDF).
SDS-PAGE was performed according to the standard protocols published elsewhere with minor modifications. Briefly, cells were lysed after incubation with rTGFβ1 in 1% SDS with 1:1000 protease inhibitor cocktail (Sigma; Taufkirchen, Germany). After sonication, the protein concentration was determined by using a modified Lowry method (Bio-Rad DC). 2×SDS-PAGE sample buffer (1.5 M Tris-HCl pH 6.8, 6 ml 20% SDS, 30 ml glycerol, 15 ml β-mercaptoethanol and 1.8 mg bromophenol blue was added, and after heating, the samples (10 μg total protein/lane) were applied to 10% (w/v) SDS-polyacrylamide gels. After electroblotting, immunodetection was carried out (1:1000 dilution of primary antibodies (mouse monoclonal anti-SMA and tubulin), 1:20000 dilution of anti-mouse antibody conjugated to HRP). Antigen-antibody complexes were visualized by an enhanced chemiluminescence system. Alpha-tubulin was used as internal control for equal loading.

SCL-1 cells [2] = assay: Oxidized (carbonylated) proteins, Oxyblot, tumor cells; format: cell-based, human; conditions: 250 μM H2O2 for 1 h
Protocol: Dermal fibroblasts or tumor cells were grown to subconfluence on tissue culture dishes. After removal of serum-containing medium, HDF were cultured in CM^HDF and either mock-treated or pretreated for 40 h with 150 μM CeO2 nanoparticles prior to addition of 10 ng rTGFβ1/ml for additional 8 h. Tumor cells were mock-treated or treated with 150 μM CNP for 16 h. As positive control, the cells were treated with 250 μM H2O2 for 1 h. Thereafter, cells were lysed and carbonyl groups of oxidized proteins were detected with the OxyBlot™ Protein Oxidation Detection Kit, following the manufacturer's protocol. Briefly, the protein concentration was determined by using a modified Lowry method (Bio-Rad DC). The protein amounts of the samples were aligned. 5 μg of this cell lysate was incubated with 2,4-dinitrophenyl (DNP) hydrazine to form the DNP hydrazone derivatives. Labeled proteins were separated by SDS-PAGE and immunostained using rabbit anti-DNP antiserum (1:500) and goat anti-rabbit IgG conjugated to horseradish peroxidase (1:2000). Blots were developed by enhanced chemiluminescence.

SCL-1 cells [3] = assay: Intracellular ROS, DCF fluorescence, tumor cells; format: cell-based, human; conditions: 250 μM H2O2, technical control; data not shown
Protocol: Generation of ROS was determined using 2′,7′-Dichlorodihydrofluorescein diacetate (H2DCF-DA), a dye that diffuses across the lipid membranes into cells and is subsequently oxidized by intracellular ROS forming the highly fluorescent DCF. Subconfluent HDF and SCL-1 tumor cells were exposed to 50 μM or 150 μM CNP in serum-free DMEM in 24-well plates. Untreated subconfluent SCL-1 cells were used as negative controls. Medium was substituted after 24 h by 100 μM H2DCF-DA containing Hanks Balanced Salt Solution (HESS). DCF fluorescence was detected at an excitation wavelength of 485 nm and emission wavelength of 520 nm in 15 minutes intervals in a FLUOstar OPTIMA plate reader (BMG Labtech, Offenburg, Germany). Mean fluorescence intensities and standard error of mean were determined for each reading point by using the statistical software Prism 3.0 (GraphPad, San Diego, Calif., USA).

HIF-1 [4] = assay: HIF-1 protein expression, western blot, tumor cells; format: cell-based, human; conditions: SCL-1; 100 μM cobalt chloride; 4 h
HIF-1 [5] = assay: HIF-1 protein expression, western blot, fibroblasts; format: cell-based, human; conditions: HDF; 100 μM cobalt chloride; 4 h
αSMA mRNA = assay: αSMA mRNA, quantitative real-time RT-PCR in human dermal fibroblasts; format: cell-based; conditions: HDF; 24 h after treatment; normalised to HPRT1
Protocol: Total RNA was isolated and transcribed into cDNA as described. Expression of mRNA was analyzed by real-time RT-PCR using a LightCycler system (Roche; Mannheim, Germany) as described. Real-time RT-PCR was performed with 40 ng cDNA in glass capillaries containing LightCycler FastStart DNA Master SYBR Green I Reaction Mix (Roche), 2 mM MgCl2 and 1 μM of primers. Quantitation of the PCR amplicons was performed using the LightCycler Software. Hypoxanthine phosphoribosyltransferase (HPRT1) was used as internal normalization control.

- increase in the amount of CeO2 per gram skin tissue vs mock-treated mice [1]: up to 8 fold
- cell morphology (human dermal fibroblasts): No change in morphology
Molecule: cerium oxide nanoparticles [CNP]

Molecule: O=[Se]([O-])[O-].[Na+].[Na+] [selenite, sodium selenite]
- TGFβ1-triggered upregulation of αSMA protein levels (αSMA): significantly lowered

Molecule: OO [H2O2, Hydrogen peroxide]
- oxidized proteins, positive control (SCL-1 cells [2]): increase in oxidized proteins
- intracellular ROS level (SCL-1 cells [3]): further increased

Molecule: [Cl][Co][Cl] [cobalt chloride]
- HIF-1 protein levels compared to mock-treated cells (HIF-1 [4]): significant increase
- HIF-1 protein expression (HIF-1 [5]): not affected

Molecule: CC(=O)N[C@@H](CS)C(=O)O [NAC, N-acetyl-L-cysteine]
- TGFβ1-triggered upregulation of αSMA protein levels (αSMA): completely prevented

Molecule: TGFβ1: Recombinant human TGFβ1 from R&D Systems, stimulus for myofibroblast formation
- αSMA protein amount compared with mock-treated control cells (αSMA; rTGFβ1 5 ng/ml for 8 to 48 h, starting at 16 h post treatment): significant time-dependent increase
- increase in αSMA steady-state mRNA levels compared to mock-treated controls (αSMA mRNA): 10 fold
